In the test the target is Cyclin-dependent kinase 2/cyclin E1 (Homo sapiens) (UniProt P24864+P24941). Nature of the test: Inhibition of C-terminal Avi-tagged CDK2/Cyclin E1 (unknown origin) extracted from Escherichia coli assessed as reduction in RB1 phosphorylation at S780 residue incubated for 60 mins in the presence of ATP by TR-FRET assay. The class given is protein-complex assay. Background: Time-resolved FRET reads energy transfer from a long-lived donor to a nearby acceptor.
Take `O=C1N([C@@H]2CCC[C@@H](O)C2)c2nc(Nc3c[nH]nc3[C@H]3CC3(F)F)ncc2C12CC2`: the INH was 0.006 µM.
Then `O=C1N([C@@H]2CCC[C@@H](O)C2)c2nc(Nc3c[nH]nc3OCC(F)F)ncc2C12CC2`, with 0.005 µM; and `O=C1N([C@@H]2CCC[C@@H](O)C2)c2nc(Nc3c[nH]nc3O[C@H]3CC3(F)F)ncc2C12CC2`, with 0.006 µM; and `O=C1N([C@@H]2CCC[C@@H](O)C2)c2nc(Nc3c[nH]nc3C(F)F)ncc2C12CC2`, with 0.007 µM.
On to `O=C1N([C@@H]2CCC[C@@H](O)C2)c2nc(Nc3c[nH]nc3O[C@@H]3CC3(F)F)ncc2C12CC2`, for which the INH is 0.006 µM.
As to `O=C1N([C@@H]2CCC[C@@H](O)C2)c2nc(Nc3c[nH]nc3-c3cnn4cccnc34)ncc2C12CC2`, the INH was found to be 0.006 µM.

(Values after ChEMBL document CHEMBL6121025, “Novel Compounds as CDK2 Inhibitors for Treating Cancer” (ACS Med Chem Lett, 2025).)
